Data reported in ChEMBL document CHEMBL3091402, “Identification of clinical candidates from the benzazepine class of histamine H3 receptor antagonists” (Bioorg Med Chem Lett, 2013).
Calls of active or inactive are those of the source. No cut-off for these calls is given here.

Assays:
Histamine H3 receptor [1] = target: T1, Histamine H3 receptor (Homo sapiens, UniProt Q9Y5N1); test: Antagonist activity at human histamine H3 receptor expressed in CHOK1 cells assessed as inhibition of GTPgammaS binding; format: functional, cell-based, CHO-K1
Histamine H3 receptor [2] = target: T2, Histamine H3 receptor (Rattus norvegicus, UniProt Q9QYN8); test: Displacement of [3H]-R-alpha-ethylhistamine from histamine H3 receptor in rat cerebral cortical tissue membranes after 45 mins by liquid scintillation spectrometry
Rattus norvegicus [3] = test: Ex vivo binding affinity to histamine H3 receptor in po dosed rat cerebral cortex using [3H]-R-alpha-ethylhistamine after 2 hrs by HPLC analysis; format: functional
Rattus norvegicus [4] = test: Ex vivo binding affinity to histamine H3 receptor in rat cerebral cortex using [3H]-R-alpha-ethylhistamine at 3 mg/kg, po after 3 hrs by HPLC analysis; format: functional
Rattus norvegicus [5] = test: Reversal of RAMH-induced dipsogenia in Lister Hooded rat at 3 mg/kg, po treated 2 hrs before RAMH challenge measured after 1 hr; format: functional
[6] = Ratio of drug level in brain to blood in rat at 3 mg/kg, po; format: ADME, organism-based; parameters: dose 3 mg/kg, route oral
Blood = test: Drug level in rat blood at 3 mg/kg, po; format: ADME, organism-based; parameters: dose 3 mg/kg, route oral; settings: in vivo, read-out: Drug uptake
Rattus norvegicus [7] = test: Ex vivo binding affinity to histamine H3 receptor in rat cerebral cortex using [3H]-R-alpha-ethylhistamine at 0.3 mg/kg, po after 3 hrs by HPLC analysis; format: functional
Liver microsome [8] = test: Intrinsic clearance in rat liver microsomes; format: ADME
Rattus norvegicus [9] = test: Reversal of RAMH-induced dipsogenia in po dosed Lister Hooded rat treated 2 hrs before RAMH challenge measured after 1 hr; format: functional
Histamine H3 receptor [10] = target: T2, Histamine H3 receptor; test: Displacement of [3H]-R-alpha-ethylhistamine from rat histamine H3 receptor expressed in HEK293 cells after 45 mins by liquid scintillation spectrometry; format: cell-based
hERG (KCNH2) = hERG (KCNH2) (Homo sapiens, UniProt Q12809); test: Inhibition of human ERG at 10 uM by patch clamp experiment
[11] = Time dependent inhibition of CYP450 (unknown origin); format: ADME, Homo sapiens
Liver microsome [12] = test: Intrinsic clearance in human liver microsomes; format: ADME
Histamine H1 receptor = Histamine H1 receptor (Homo sapiens, UniProt P35367); test: Binding affinity to human histamine H1 receptor
Histamine H4 receptor = Histamine H4 receptor (Homo sapiens, UniProt Q9H3N8); test: Binding affinity to human histamine H4 receptor
Histamine H2 receptor = Histamine H2 receptor (Homo sapiens, UniProt P25021); test: Binding affinity to human histamine H2 receptor
[13] = Oral bioavailability in cynomolgus monkey; format: ADME, organism-based, Macaca fascicularis; settings: in vivo
[14] = Cmax in iv dosed cynomolgus monkey; format: ADME, organism-based, Macaca fascicularis; parameters: route intravenous; settings: in vivo
[15] = Total blood clearance in iv dosed Sprague-Dawley rat; format: ADME, organism-based; settings: whole blood
[16] = Cmax in po dosed Beagle dog; format: ADME, organism-based, Canis lupus familiaris; parameters: route oral; settings: in vivo
[17] = Tmax in po dosed Beagle dog; format: ADME, organism-based, Canis lupus familiaris; settings: in vivo
[18] = Terminal half life in iv dosed cynomolgus monkey; format: ADME, organism-based, Macaca fascicularis; settings: in vivo, read-out: beta t1/2 (converted)
[19] = Total blood clearance in iv dosed cynomolgus monkey; format: ADME, organism-based, Macaca fascicularis; settings: whole blood
[20] = Total blood clearance in iv dosed Beagle dog; format: ADME, organism-based, Canis lupus familiaris; settings: whole blood
[21] = Terminal half life in po dosed Sprague-Dawley rat; format: ADME, organism-based; settings: in vivo, read-out: beta t1/2 (converted)
[22] = Oral bioavailability in Beagle dog; format: ADME, organism-based, Canis lupus familiaris; settings: in vivo
[23] = Aqueous solubility of the compound; format: physicochemical
[24] = Terminal half life in iv dosed Sprague-Dawley rat; format: ADME, organism-based; settings: in vivo, read-out: beta t1/2 (converted)
[25] = Ratio of drug level in brain to blood in human; format: ADME, tissue-based
Histamine H3 receptor [26] = target: T1, Histamine H3 receptor; test: Displacement of [3H]-R-alpha-ethylhistamine from histamine H3 receptor in human cerebral cortical tissue membranes after 45 mins by liquid scintillation spectrometry
[27] = Terminal half life in po dosed Beagle dog; format: ADME, organism-based, Canis lupus familiaris; settings: in vivo, read-out: beta t1/2 (converted)
Rattus norvegicus [28] = test: Cognitive enhancing effect in Lister Hooded rat assessed as increase of time spent exploring novel versus familiar objects in T2 at 0.3 to 1 mg/kg, po bid; format: functional, organism-based
[29] = Volume of distribution at steady-state in iv dosed Beagle dog; format: ADME, organism-based, Canis lupus familiaris; settings: in vivo, read-out: Vdss
[30] = Cmax in iv dosed Sprague-Dawley rat; format: ADME, organism-based; parameters: route intravenous; settings: in vivo
[31] = Cmax in po dosed cynomolgus monkey; format: ADME, organism-based, Macaca fascicularis; parameters: route oral; settings: in vivo
[32] = Cmax in po dosed Sprague-Dawley rat; format: ADME, organism-based; parameters: route oral; settings: in vivo
[33] = Terminal half life in iv dosed Beagle dog; format: ADME, organism-based, Canis lupus familiaris; settings: in vivo, read-out: beta t1/2 (converted)
Rattus norvegicus [34] = test: Cognitive enhancing effect against scopolamine-induced memory deficit in po dosed Wistar rat assessed as passive avoidance response after 24 hrs; format: functional, organism-based
[35] = Tmax in po dosed Sprague-Dawley rat; format: ADME, organism-based; settings: in vivo
[36] = Cmax in iv dosed Beagle dog; format: ADME, organism-based, Canis lupus familiaris; parameters: route intravenous; settings: in vivo
[37] = Volume of distribution at steady-state in iv dosed Sprague-Dawley rat; format: ADME, organism-based; settings: in vivo, read-out: Vdss
[38] = Tmax in po dosed cynomolgus monkey; format: ADME, organism-based, Macaca fascicularis; settings: in vivo
[39] = Terminal half life in po dosed cynomolgus monkey; format: ADME, organism-based, Macaca fascicularis; settings: in vivo, read-out: beta t1/2 (converted)
[40] = Oral bioavailability in Sprague-Dawley rat; format: ADME, organism-based; settings: in vivo
[41] = Ratio of drug level in brain to blood in iv dosed Sprague-Dawley rat; format: ADME, organism-based
Rattus norvegicus [42] = species on record: Rattus norvegicus; test: Ex vivo receptor occupancy of histamine H3 receptor in rat brain; format: functional, organism-based
Rattus norvegicus [43] = test: Cognitive enhancing effect against scopolamine-induced memory deficit in Wistar rat assessed as passive avoidance response at 3 mg/kg, po after 24 hrs; format: functional, organism-based; parameters: dose 3 mg/kg
[44] = Volume of distribution at steady-state in iv dosed cynomolgus monkey; format: ADME, organism-based, Macaca fascicularis; settings: in vivo, read-out: Vdss
Histamine H3 receptor [45] = target: T1, Histamine H3 receptor; test: Displacement of [3H]-R-alpha-ethylhistamine from human histamine H3 receptor expressed in HEK293 cells after 45 mins by liquid scintillation spectrometry

T1 sequence (Q9Y5N1 whole entry): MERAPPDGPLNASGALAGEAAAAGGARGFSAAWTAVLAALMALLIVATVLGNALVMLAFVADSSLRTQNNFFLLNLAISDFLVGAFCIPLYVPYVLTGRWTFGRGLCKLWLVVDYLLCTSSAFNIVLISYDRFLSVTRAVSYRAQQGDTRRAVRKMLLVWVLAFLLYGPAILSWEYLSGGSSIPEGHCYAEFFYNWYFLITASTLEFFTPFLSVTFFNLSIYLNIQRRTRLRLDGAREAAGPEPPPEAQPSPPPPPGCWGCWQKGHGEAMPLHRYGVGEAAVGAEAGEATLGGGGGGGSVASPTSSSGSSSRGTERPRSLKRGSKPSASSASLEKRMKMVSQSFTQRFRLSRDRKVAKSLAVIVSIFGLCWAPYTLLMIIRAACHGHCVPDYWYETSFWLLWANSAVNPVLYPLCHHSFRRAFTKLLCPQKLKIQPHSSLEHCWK
T2 sequence (Q9QYN8 whole entry): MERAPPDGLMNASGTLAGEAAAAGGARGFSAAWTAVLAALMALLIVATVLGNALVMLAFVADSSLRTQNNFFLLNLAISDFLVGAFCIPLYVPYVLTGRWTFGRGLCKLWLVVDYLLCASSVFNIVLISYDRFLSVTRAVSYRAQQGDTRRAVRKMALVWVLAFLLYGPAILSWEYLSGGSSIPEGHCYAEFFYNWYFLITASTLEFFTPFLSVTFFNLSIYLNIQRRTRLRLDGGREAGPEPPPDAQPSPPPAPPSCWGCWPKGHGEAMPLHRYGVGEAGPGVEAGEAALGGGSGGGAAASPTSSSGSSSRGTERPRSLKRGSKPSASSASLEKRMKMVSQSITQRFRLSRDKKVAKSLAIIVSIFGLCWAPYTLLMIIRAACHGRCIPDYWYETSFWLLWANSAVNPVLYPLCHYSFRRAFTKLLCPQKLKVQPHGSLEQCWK
Sequence of Histamine H1 receptor (P35367 whole entry): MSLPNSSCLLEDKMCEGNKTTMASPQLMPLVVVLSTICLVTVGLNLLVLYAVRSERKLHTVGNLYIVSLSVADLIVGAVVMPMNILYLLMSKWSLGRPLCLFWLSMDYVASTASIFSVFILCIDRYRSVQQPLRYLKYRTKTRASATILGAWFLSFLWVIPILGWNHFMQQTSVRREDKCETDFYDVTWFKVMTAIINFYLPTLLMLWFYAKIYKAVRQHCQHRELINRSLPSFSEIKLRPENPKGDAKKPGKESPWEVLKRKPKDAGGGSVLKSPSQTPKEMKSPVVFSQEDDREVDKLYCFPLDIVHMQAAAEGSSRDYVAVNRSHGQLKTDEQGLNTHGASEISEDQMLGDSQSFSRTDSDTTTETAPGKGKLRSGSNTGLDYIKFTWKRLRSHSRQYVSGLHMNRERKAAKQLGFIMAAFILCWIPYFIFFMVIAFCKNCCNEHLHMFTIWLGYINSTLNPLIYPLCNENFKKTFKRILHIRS
Sequence of Histamine H2 receptor (P25021 whole entry): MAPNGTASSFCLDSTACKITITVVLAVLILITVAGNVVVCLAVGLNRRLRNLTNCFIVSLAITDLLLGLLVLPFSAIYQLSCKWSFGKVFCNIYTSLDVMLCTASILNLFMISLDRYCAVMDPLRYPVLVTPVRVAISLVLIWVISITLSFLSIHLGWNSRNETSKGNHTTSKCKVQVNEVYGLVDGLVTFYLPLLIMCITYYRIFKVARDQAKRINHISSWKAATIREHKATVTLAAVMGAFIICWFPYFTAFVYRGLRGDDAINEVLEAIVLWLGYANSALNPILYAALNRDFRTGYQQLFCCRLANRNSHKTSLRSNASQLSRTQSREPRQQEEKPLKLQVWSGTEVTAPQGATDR
Sequence of hERG (KCNH2) (Q12809 whole entry): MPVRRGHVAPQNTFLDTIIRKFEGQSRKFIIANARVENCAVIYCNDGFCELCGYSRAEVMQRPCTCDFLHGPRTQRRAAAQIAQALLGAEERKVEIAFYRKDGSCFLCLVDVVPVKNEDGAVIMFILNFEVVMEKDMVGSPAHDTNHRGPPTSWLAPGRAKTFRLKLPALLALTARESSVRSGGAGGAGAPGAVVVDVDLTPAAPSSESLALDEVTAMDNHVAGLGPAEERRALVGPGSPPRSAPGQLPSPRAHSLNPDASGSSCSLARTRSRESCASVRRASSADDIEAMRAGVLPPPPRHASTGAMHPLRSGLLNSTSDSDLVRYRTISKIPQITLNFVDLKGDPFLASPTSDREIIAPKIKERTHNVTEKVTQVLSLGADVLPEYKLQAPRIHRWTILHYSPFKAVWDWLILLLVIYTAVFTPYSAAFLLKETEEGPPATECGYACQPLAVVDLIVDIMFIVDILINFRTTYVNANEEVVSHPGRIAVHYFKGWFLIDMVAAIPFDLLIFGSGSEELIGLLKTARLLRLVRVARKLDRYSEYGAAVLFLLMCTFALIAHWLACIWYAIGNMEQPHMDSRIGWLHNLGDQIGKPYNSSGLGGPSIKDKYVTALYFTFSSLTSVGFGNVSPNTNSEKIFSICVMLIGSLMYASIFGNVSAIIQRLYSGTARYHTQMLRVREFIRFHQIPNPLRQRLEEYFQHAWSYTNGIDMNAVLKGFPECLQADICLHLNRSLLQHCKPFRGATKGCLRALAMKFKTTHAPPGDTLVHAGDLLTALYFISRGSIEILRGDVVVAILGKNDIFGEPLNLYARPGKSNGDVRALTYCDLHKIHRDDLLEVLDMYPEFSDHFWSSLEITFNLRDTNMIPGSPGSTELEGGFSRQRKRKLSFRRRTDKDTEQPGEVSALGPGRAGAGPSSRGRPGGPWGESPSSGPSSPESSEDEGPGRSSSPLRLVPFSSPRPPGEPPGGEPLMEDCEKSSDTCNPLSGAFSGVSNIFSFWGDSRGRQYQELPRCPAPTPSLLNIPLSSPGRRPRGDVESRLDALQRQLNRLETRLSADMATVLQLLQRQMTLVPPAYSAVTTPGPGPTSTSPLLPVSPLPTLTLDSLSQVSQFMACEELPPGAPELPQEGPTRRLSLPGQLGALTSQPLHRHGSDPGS
Sequence of Histamine H4 receptor (Q9H3N8 whole entry): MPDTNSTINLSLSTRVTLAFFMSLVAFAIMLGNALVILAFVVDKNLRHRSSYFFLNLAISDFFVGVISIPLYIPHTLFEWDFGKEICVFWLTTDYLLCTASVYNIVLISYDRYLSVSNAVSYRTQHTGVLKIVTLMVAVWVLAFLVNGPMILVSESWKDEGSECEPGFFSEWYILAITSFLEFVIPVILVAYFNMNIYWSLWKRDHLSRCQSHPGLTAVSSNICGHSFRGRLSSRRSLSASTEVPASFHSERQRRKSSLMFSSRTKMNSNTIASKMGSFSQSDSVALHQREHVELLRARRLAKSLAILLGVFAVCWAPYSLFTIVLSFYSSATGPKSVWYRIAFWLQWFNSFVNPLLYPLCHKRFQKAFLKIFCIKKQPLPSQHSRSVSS

c1cnc(Oc2ccc3c(c2)CCN(C2CCC2)CC3)cn1
Ki (Histamine H3 receptor [1]): 1.58 nM

CN1CCN(c2ccc(Oc3ccc4c(c3)CCN(C3CCC3)CC4)nc2)C1=O
Ki (Histamine H3 receptor [2]): 1 nM | ED50 (Rattus norvegicus [3]): 1.9 mg/kg | Activity (Rattus norvegicus [4]): 81% | Ki (Histamine H3 receptor [1]): 0.1 nM

O=C(N1CCOCC1)N1CCC(Oc2ccc3c(c2)CCN(C2CCC2)CC3)CC1
ED50 (Rattus norvegicus [3]): 2 mg/kg | Activity (Rattus norvegicus [4]): 43% | Activity (Rattus norvegicus [5]): 100%

CC(=O)Nc1ccc(Oc2ccc3c(c2)CCN(C2CCC2)CC3)nc1
Ki (Histamine H3 receptor [2]): 1 nM | ED50 (Rattus norvegicus [3]): 0.32 mg/kg | Activity (Rattus norvegicus [4]): 89% | Ki (Histamine H3 receptor [1]): 0.2 nM | Kp [6]: 0.8 | concentration (Blood): 1200 nM

CC(C)NC(=O)c1ccc(Oc2ccc3c(c2)CCN(C2CCC2)CC3)nc1
Ki (Histamine H3 receptor [2]): 0.631 nM | Activity (Rattus norvegicus [7]): 19% | Ki (Histamine H3 receptor [1]): 0.126 nM | CLH (Liver microsome [8]): < 3 mL/min/g

c1cnc(Oc2ccc3c(c2)CCN(C2CCC2)CC3)nc1
Ki (Histamine H3 receptor [1]): 2.51 nM

c1cc(-c2ccc(Oc3ccc4c(c3)CCN(C3CCC3)CC4)nc2)[nH]n1
Ki (Histamine H3 receptor [2]): 2.51 nM | Activity (Rattus norvegicus [7]): 23% | Ki (Histamine H3 receptor [1]): 0.251 nM

CC(=O)c1ccc(Oc2ccc3c(c2)CCN(C2CCC2)CC3)cn1
Ki (Histamine H3 receptor [2]): 0.631 nM | Activity (Rattus norvegicus [7]): 66% | Ki (Histamine H3 receptor [1]): 0.1 nM

CNC(=O)c1ccc(Oc2ccc3c(c2)CCN(C2CCC2)CC3)cn1
ED50 (Rattus norvegicus [9]): 0.25 mg/kg | Ki (Histamine H3 receptor [2]): 3.98 nM | ED50 (Rattus norvegicus [3]): 0.43 mg/kg | Activity (Rattus norvegicus [4]): 82% | Ki (Histamine H3 receptor [1]): 0.501 nM | Kp [6]: 3.4 | concentration (Blood): 570 nM

O=C1OCCN1c1ccc(Oc2ccc3c(c2)CCN(C2CCC2)CC3)nc1
Ki (Histamine H3 receptor [2]): 0.794 nM | Activity (Rattus norvegicus [7]): 44% | Ki (Histamine H3 receptor [1]): 0.158 nM

CNC(=O)c1cnc(Oc2ccc3c(c2)CCN(C2CCC2)CC3)cn1
Ki (Histamine H3 receptor [10]): 1.12 nM | ED50 (Rattus norvegicus [9]): 0.02 mg/kg | inhibition at 10 µM (hERG (KCNH2)): < 10% | Ki (Histamine H3 receptor [2]): 0.832 nM | IC50 [11]: > 10000 nM | ED50 (Rattus norvegicus [3]): 0.04 mg/kg | Activity (Rattus norvegicus [4]): 82% | CLH (Liver microsome [12]): 1.2 mL/min/g | Ki (Histamine H1 receptor): 1580 nM | concentration (Blood): 1120 nM | Ki (Histamine H4 receptor): > 3160 nM | Ki (Histamine H2 receptor): > 3160 nM | CLH (Liver microsome [8]): 1.4 mL/min/g

O=C1CCCN1c1ccc(Oc2ccc3c(c2)CCN(C2CCC2)CC3)nc1 [GSK239512]
bioavailability [13]: 55% | Cmax [14]: 383 nM | Ki (Histamine H3 receptor [10]): 0.148 nM | clearance [15]: 39 mL/min/kg | ED50 (Rattus norvegicus [9]): 0.04 mg/kg | Cmax [16]: 120 nM | inhibition at 10 µM (hERG (KCNH2)): < 10% | Tmax [17]: 0.7 h | half-life [18]: 1.7 h | Ki (Histamine H3 receptor [2]): 0.363 nM | clearance [19]: 28 mL/min/kg | IC50 [11]: > 10000 nM | ED50 (Rattus norvegicus [3]): 0.08 mg/kg | clearance [20]: 22 mL/min/kg | half-life [21]: 2.1 h | bioavailability [22]: 33% | solubility [23]: > 10000 µg/mL | half-life [24]: 1.2 h | Kp [25]: 1.83 | Activity (Rattus norvegicus [4]): 95% | Ki (Histamine H3 receptor [26]): 0.12 nM | half-life [27]: 1.8 h | Activity (Rattus norvegicus [28]): Active | Ki (Histamine H3 receptor [1]): 0.1 nM | CLH (Liver microsome [12]): 0.6 mL/min/g | Vd [29]: 2.8 L/kg | Cmax [30]: 671 nM | Ki (Histamine H1 receptor): 2510 nM | Cmax [31]: 145 nM | Kp [6]: 1 | Cmax [32]: 348 nM | half-life [33]: 1.7 h | Activity (Rattus norvegicus [34]): Dose-dependent effect | Tmax [35]: 1 h | concentration (Blood): 410 nM | Cmax [36]: 393 nM | Vd [37]: 3.1 L/kg | Ki (Histamine H4 receptor): > 3160 nM | Tmax [38]: 1.3 h | half-life [39]: 1.7 h | Ki (Histamine H2 receptor): > 3160 nM | bioavailability [40]: 51% | Kp [41]: 1.83 | EC50 (Rattus norvegicus [42]): 15 nM | Activity (Rattus norvegicus [43]): Active | Vd [44]: 3.2 L/kg | CLH (Liver microsome [8]): 1.6 mL/min/g | Ki (Histamine H3 receptor [45]): 0.204 nM

c1cncc(Oc2ccc3c(c2)CCN(C2CCC2)CC3)c1
Ki (Histamine H3 receptor [1]): 2.51 nM

c1ccc(Oc2ccc3c(c2)CCN(C2CCC2)CC3)cc1
Ki (Histamine H3 receptor [1]): 3.16 nM

Cc1nc(Oc2ccc3c(c2)CCN(C2CCC2)CC3)ccc1C#N
Ki (Histamine H3 receptor [2]): 3.98 nM | Activity (Rattus norvegicus [4]): 18% | Ki (Histamine H3 receptor [1]): 0.2 nM

O=C1C[C@@H](O)CN1c1ccc(Oc2ccc3c(c2)CCN(C2CCC2)CC3)nc1
Ki (Histamine H3 receptor [2]): 1.58 nM | Activity (Rattus norvegicus [4]): 56% | Ki (Histamine H3 receptor [1]): 0.2 nM
